The structures appear in SMILES notation. Values after ≈ are worked out from the molar mass of the structure shown.

Here are results for three compounds from patent US6900242B2, “Lactone formulations and method of use” (Magnachem International Laboratories, Inc., priority 2001, dated 2005).

One test concerns Fusobacterium. Description: MIC, procedure of Walker et al. The format is cell-based. The text has this:
(§1) The minimum inhibitory concentration (MIC) needed to kill Bacteroides assaccharolyticus (Forsyth strain), determined according to the procedure of Walker et al (Antimicrobial and Chemotherapy, Vol. 16, p. 452-457, (1979), is between 6 to 60 micrograms per ml. The MIC value for B. gingivalis is 6 micrograms per ml. The MIC value for B. gracilis and Fusobacterium, other gram negative organisms is about 25 for each; and the MIC value for the gram positive organism Actinomyces viscosus is 60 for the aerobic strain and 60 for the anaerobic strain.

Another test deals with B. gingivalis. As to the kind of experiment: MIC, procedure of Walker et al. The format is cell-based. The following applies: Porphyromonas gingivalis.
From the text: as §1

For the next test, the system named is Actinomyces viscosus. As to the kind of experiment: MIC, procedure of Walker et al. The format is cell-based.
From the text: as §1

A further test has as its system B. gracilis. As to the kind of experiment: MIC, procedure of Walker et al. Type of test: cell-based.
From the text: as §1

The subject of test [1] is Bacteroides assaccharolyticus (Forsyth strain). Description: MIC, procedure of Walker et al. The format is cell-based. The following applies: read-out: minimum inhibitory concentration (MIC).
From the text: as §1

Test [2] concerns Staphylococcus aureus, Pseudomonas aeroginosa, Escherichia coli, and Klebsiella pneumoniae. As to the kind of experiment: Anti-bacterial activity of LMSV-6 dilutions (text summary, whole panel). Type of test: cell-based. The settings on record: dilutions 10, 20, 30 and 40 microliters/10 mL of LMSV-6 in Tween 60-2%. How it is done: The material obtained in Example 1 was screened for antibiotic activity against Staphylococcus aureus, Pseudomonas aeroginosa, Escherichia coli, and Klebsiella pneumoniae.
• Solvent: Buffer Phosphate 0.1 N, pH=8.0 • Antibiotic: LMSV-6 (Pure, Securolide) • Medium coat: 2 mL/100 mL • Inoculum: 4 mL/Petri Dish Preparation of Culture Medium: […]

The test system of test [3] is anaerobic gram negative organisms associated with gingivitis. As to the kind of experiment: Topical application to affected gingiva (gingivitis). The following applies: topically applied to the affected gingiva. Type of test: in vivo.
Test [4] concerns HELA cells (cervix carcinoma). As to the kind of experiment: Cytotoxic assay (MTT) in HELA cells. Type of test: cell-based. The following applies: Homo sapiens. The text has this:
(§2) There are a large number of biological assays that require the measurement of surviving or proliferating mammalian cells. This can be achieved by different methods, e.g. counting cells that exclude or include a dye; measuring released ^51Cr labeled protein after cell lysis; and measuring incorporation of radiactive nucleotides radiactive [^3H]thymidine) or [^125I]iododeoxyuridine) during cells proliferation.
(§3) Viable cells can be measured by using any of several staining methods, but a more accurate method is the multiwell scanning spectrophotometers (ELISA readers) which can measure large number of samples with a high degree of precision.
(§4) A colorimetric assay to detect living cells, utilizing a colorless substrate that is modified to a colored product by any living cell, but not by dead cells or tissue culture medium, was used. […] The Formazan concentration in a gradient of Securolide concentrations was measured by multiwells scanning spectrophotometer (ELISA reader). Data analysis was then used to establish the Inhibitory concentration fifty (IC50) which is a quantitative parameter of antineoplastic activity. […]
(§5) Assessment of cell growth inhibition was determined according to the methods of Skehan et aL, J. Nat. […] Optical density was measured at 570 nm. […]

The next test concerns E. coli ATCC 352 18. Description: Anti-bacterial activity, sensitivity disc zone of inhibition. Type of test: cell-based, Escherichia coli. The following applies: for zone of inhibition: E. coli. The method, then: (§6) The material obtained in Example 1 was screened for antibiotic activity against Staphylococcus aureus, Pseudomonas aeroginosa, Escherichia coli, and Klebsiella pneumoniae. • Solvent: Buffer Phosphate 0.1 N, pH=8.0 • Antibiotic: LMSV-6 (Pure, Securolide) • Medium coat: 2 mL/100 mL • Inoculum: 4 mL/Petri Dish Preparation of Culture Medium: [table] Microorganisms used were standardized by American Type Culture Collection (ATCC), used in first generation: • E. coli ATCC 352 18, Lot 202602, Exp. 05/2000 (19-258) • *Kleb. Klebsiela pneumoniae, ATCC 13882, Lot 202 174, Exp 02/2000 (19-152) • *Ps. A Pseudomona aeroginosa ATCC 27853, Lot 202992, Exp 08/2000 (19-060) • *St. A Staphyloccus aureus ATCC 12598, Lot 202564, Exp 05/2000 (19-137) • **Str. P Streptoccus pyogenes, ATCC 2 1547, Lote 202691, Exp 06/2000 (19-190) • *=Atmospheric oxygen, Temp=35±2° C. • **=Atmopheric CO2, Temp=35±2° C.

A further test has as its system Sarcina lutea. As to the kind of experiment: Minimum Inhibitory Concentration, poured in plate, sensitivity disc. Type of test: cell-based. The method, then:
• Methodology: Poured in plate, medium Mueler Hinton pH=8 • Buffer pH=8 for ceftriaxone pattern dilution • Tween 20 at 2% for LMSV-6 (Securolide) dilution • Microorganism: Sarcina lutea • Sample(s): LMSV-6 (16.0 microliters/100 mL and 10 microliter applied to sensitivity disc). Methodology: Poured in plate, medium Mueler Hinton p&8 • Buffer pH=8 for ceftriaxone pattern dilution • Tween 20 at 2% for LMSV-6 (Securolide) dilution • Used Microorganism: Sarcina lutea • Sample(S): LMSV-6 (10 microliters/mL and 20 microliter applied to sensitivity disc) • Control Pattern (P): Ceftriaxone (disc with 10 mcg) Results: […]

Test [5] deals with Staphyloccus aureus ATCC 12598. Description: Anti-bacterial activity, sensitivity disc zone of inhibition. The format is cell-based, Staphylococcus aureus. The following applies: for zone of inhibition: St. a. The method, then:
as §6

For a further test, the system named is H. pylori. As to the kind of experiment: Patient endoscopy before and after treatment, H. pylori. Type of test: in vivo, human. The following applies: patients. The text has this: There are several methods used clinically to determine whether Helicobacter pylori is present in a human subject. These are employed for initial diagnosis of infection prior to treatment, as well as for determining the success of treatment in eradicating the organism from the patient. Endoscopy of the patient provides samples of tissue which can be cultured in a microaerophilic environment to diagnose H. pylori infection. Alternatively, the sample can be examined histologically by employing one of a number of stains such as Giemsa or hematoxylin-eosin. An urea test which takes advantage of the production of urease by H. pylori, can also be applied. This test relies on the formation of ammonia from the urea hydrolysis, which results in an observable change in pH, that is an indication of the […] of H. pylori.

Test [6] relates to HEP-2 cells (laringe carcinoma). As to the kind of experiment: Cytotoxic assay (MTT) in HEP-2 cells. The format is cell-based. The settings on record: Homo sapiens, HEp-2, HEP-2 cells.
From the text: as §2, §3, §4, §5

Test [7] deals with Pseudomona aeroginosa ATCC 27853. Description: Anti-bacterial activity, sensitivity disc zone of inhibition. Type of test: cell-based, Pseudomonas aeroginosa. The following applies: for zone of inhibition: Ps. A. The method, then:
as §6

In a further test the test system is bacterial infection. Description: In vivo treatment of bacterial infection, rats infected in surgery. The settings on record: doses calculated by comparison with ceftriaxone.
Test [8] relates to Klebsiela pneumoniae, ATCC 13882. As to the kind of experiment: Anti-bacterial activity, sensitivity disc zone of inhibition. The settings on record: for zone of inhibition: Kleb. Type of test: cell-based, Klebsiella pneumoniae. How it is done: as §6
The next test concerns Candida albicans. Description: Candida albicans MIC / minimal fungicidal concentration assays. The format is cell-based. The settings on record: concomitant assays. How it is done:
Candida albicans cells were prepared as indicated in the J. Antimicrobial Chemotherapy 38, 579-587, and were washed 3 times with a 0.1 M phosphate solution and used immediately to determine the minimal inhibitory concentration (MIC). The MICs were determined by modification of a microtitre plate according to the standard method of the laboratory clinical standards of the Comite National. RPMI-1640, and L-glutamine buffered at pH 7 with a 0.15 M solution of MOPS (3-[N-morpholino]propane sulfonic acid). Candida albicans cells (1.5×10^3 cells/ml) were added to the wells of a 96-well plate containing RPMI-1640 and dilutions of antifungal agents. The results were read 48 hours after incubation at 35° C. and the MIC or the minimal inhibitory concentration which inhibited the growth of the Candida albicans cells was determined. After reading the MIC at 48 hours, the plates were shaken and 10 μl of well aliquot was removed from the wells which was placed on rectangular disks containing dextrose sugar. The plates were incubated for 48 hours at 35° C. and the minimal fungicidal concentration and the concentration of the antifungal agent at which there were no number of colony forming units.

The mark [9] stands for this setting: disc of sensitivity 5 micrograms.
Setting [10] is: disc of sensitivity 50 micrograms.

As for `C=C1CCOC1=O` [LMSV-6], the MIC value result against Fusobacterium was “about 25”; in the test with Actinomyces viscosus (aerobic strain), 60 µg/mL (≈ 612 µM); with Actinomyces viscosus (anaerobic strain), 60 µg/mL (≈ 612 µM); against B. gracilis it was “about 25”. Also, the MIC in the test with B. gingivalis was 6 µg/mL (≈ 61.2 µM); in [1], 6 to 60 µg/mL (≈ 61.2 to 612 µM). Besides, the “inhibition of bacterial growth” value in test [2] is “did not exhibit inhibition of bacterial growth”. The “effect against gingivitis organisms” value in test [3] was “selectively effective”. Also, the IC50 (commonly the concentration that gives 50% inhibition) in test [4] (population of 10^5 Cells/mL) came out at 7.37 µg/mL (≈ 75.1 µM); in test [4] (population of 10^6 Cells/mL), 27.3 µg/mL (≈ 278 µM); in [6] (population of 10^5 Cells/mL), 10.4 µg/mL (≈ 106 µM); in [6] (population of 10^6 Cells/mL), 37.4 µg/mL (≈ 381 µM). The zone of inhibition with E. coli ATCC 352 18 (LMSV-6 (puro)) is reported as 30 (mm); in [5] (LMSV-6 (puro)) it was 30 mm; in test [7] (LMSV-6 (puro)), 30 mm; in test [8] (LMSV-6 (puro)), 40 mm. The “inhibition of growth” value in the test with E. coli ATCC 352 18 (Escherichia coli, 5 microliters) is “inhibits growth”; in test [5] (Staphyloccus aureus, 5 microliters), “inhibits growth”; in [7] (Pseudomonas aeroginosa, 5 microliters) it was “inhibits growth”; in test [8] (Klebsiela pneumonae, 5 microliters), “inhibits growth”. Moreover, the “inhibition (zone)” value in the test with Sarcina lutea (0.2 microliters of LMSV-6) is given as 3.3 mm. Besides, the “ZONE OF INHIBITION” value in the test with Sarcina lutea (applied volume to disc 1.6 microliters) was determined as 20.0 mm; in the test on Sarcina lutea (applied volume to disc 5 microliters) it was 42.0 mm. Also, the “Minimum Inhibitory Concentration (MIC)” value in the test with Sarcina lutea (approximate) was ~0.2 µL. Besides, the “H. pylori by endoscopy before and after treatment” value in the test with H. pylori was “decrease or absence of H. pylori”. Further, the “treatment of bacterial infection” value in the test on bacterial infection is given as “successfully treated”. The “activity against Candida albicans” value in the test on Candida albicans is “high activity”.
On to `O=C(O)c1cn(C2CC2)c2cc(N3CCNCC3)c(F)cc2c1=O` [Ciprof, Ciprofloxacina, reference compound], for which the zone of inhibition came to 28 mm in the test on E. coli ATCC 352 18 (setting [9]), 20 mm in [5] (setting [9]), 12 mm in [7] (setting [9]) and 26 mm in test [8] (setting [9]).
As for `C[C@@H]1O[C@@H]1P(=O)(O)O` [osf, Fosfomicina, reference compound], the zone of inhibition with E. coli ATCC 352 18 (setting [10]) is listed as 10 mm; in [5] (setting [10]), 18 mm; in test [7] (setting [10]), 6 mm; in [8] (setting [10]), 22 mm.
